Source: patent publication US12358910B2, “Heteroaromatic compounds as Vanin inhibitors” (Boehringer Ingelheim International GmbH, priority 2018, dated 2025)

How the values were obtained:
[1] = target: T1, FLAG-tagged Vanin-1 (AA 22-493, T26I) (Homo sapiens, UniProt O95497, T26I); assay: Vanin-1 enzymatic assay (pantothenic acid formation, RapidFire mass spectrometry); type: biochemical; settings: 0.1 nM FLAG-tagged Vanin-1, 3 μM D-pantethine, room temperature; geometric mean in case of multiple measurements; read-out: VNN-1 IC50
T1 construct: FLAG-tagged Vanin-1 (AA 22-493, T26I, produced internally); FLAG; made in house
T1 sequence (O95497 22-493 T26I): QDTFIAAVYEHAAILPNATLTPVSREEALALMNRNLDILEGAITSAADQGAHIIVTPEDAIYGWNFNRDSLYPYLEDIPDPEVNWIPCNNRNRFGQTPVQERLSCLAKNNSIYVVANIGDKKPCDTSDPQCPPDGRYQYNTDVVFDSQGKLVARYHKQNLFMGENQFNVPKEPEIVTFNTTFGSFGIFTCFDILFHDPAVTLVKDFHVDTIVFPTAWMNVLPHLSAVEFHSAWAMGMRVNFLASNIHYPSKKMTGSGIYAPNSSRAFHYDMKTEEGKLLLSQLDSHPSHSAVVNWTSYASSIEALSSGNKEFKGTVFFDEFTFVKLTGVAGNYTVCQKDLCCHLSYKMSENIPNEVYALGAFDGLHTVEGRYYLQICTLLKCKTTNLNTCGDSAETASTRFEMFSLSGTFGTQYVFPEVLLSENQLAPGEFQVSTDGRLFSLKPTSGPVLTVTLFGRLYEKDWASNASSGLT
Procedure: Description of Biological Properties Vanin-1 Enzymatic Assay:
The test compounds are dissolved in 100% DMSO at a concentration of 10 mM and in a first step diluted in DMSO to a concentration of 5 mM, followed by serial dilution steps in 100% DMSO. Dilution factor and number of dilution steps may vary according to needs. Typically 8 different concentrations by 1:5 dilutions are prepared, a further intermediate dilutions of the substances is carried out with assay buffer resulting in 1% final DMSO concentration in the assay.
0.1 nM of FLAG-tagged Vanin-1 (AA 22-493, T26I, produced internally) and test compounds are incubated at room temperature for 20 minutes in assay buffer (1 mM DTT, 0.0025% Brij-35, 50 mM HEPES, pH7.5). D-Pantethine (Sigma, Cat #P2125-5G) in assay buffer is added (final concentration 3 μM) and incubated for additional 30 minutes at room temperature. Total assay volume typically is 40 μl but might be adjusted according to needs. Reaction is stopped by adding equal volume of stop solution as the reaction mixture to reach 100 nM HD-pantothenic acid (as an internal standard) and 1% TFA. Assay plates are centrifuged for 2 minutes and the formation of pantothenic acid is detected by RapidFire Mass Spectrometry (mobile phase A: 0.1% formic acid and 0.01% trifluoroacetic acid in water; mobile phase B: 47.5% acetonitrile, 47.5% methanol, 0.1% formic acid and 0.01% trifluoroacetic acid in water) using a C18, 12 μL cartridge (Agilent Cat #G9205A).
The values given in Table I result from measurements of one or more samples. In case of multiple measurements the geometric mean values are given.

[2] = test system: Pantetheinase (vanin); assay: Human Whole Blood assay (vanin activity by pantothenic acid formation); type: cell-based; settings: pantethine substrate, 5 min reaction at room temperature, geometric mean in case of multiple measurements, read-out: HWB IC50
Procedure: Human Whole Blood assay: Pantetheinase (vanin) converts panteheine into pantothenic acid and cysteamine. Accordingly, in the described protocol vanin activity is quantified by formation of pantothenic acid after pantetheine supplementation via pantethine. The assay is applicable to identify vanin inhibitors. Compound stocks are dissolved in DMSO at 10 mM. Further dilutions are performed in RPMI 1640 medium (Gibco, #A-10491-01) and final concentrations in the assay are 0.032 nM-500 nM.
Human blood is drawn into a blood bag (1% heparin, 50 I.E./mL). Blood is aliquoted into cavities of 96-deep-well plates at 290 μL and mixed with 10 μL compound solution or vehicle (30 sec at 1400 rpm on a shaker). Equilibration follows at room temperature, 250 rpm and for 30 min. The assay is started by adding 10 μL of substrate solution (2 μM pantethine in 1 mM DTT, 0.0025% Brij-35, 50 mM HEPES, pH7.5) to each well, except for some blank wells which receive […] substrate buffer (1 mM DTT, 0.0025% Brij-35, 50 mM HEPES, pH7.5) only. Samples are thoroughly shaken (30 sec, 1400 rpm) and reaction is allowed to take place at room temperature, 250 rpm and for 5 min. The reaction is stopped by addition of a vanin tool inhibitor in excess (BI-1 total conc. 10 μM). Centrifugation of the plate follows at 4° C., 665 G for 10 min. Then the blood plasma samples (100 μL) are transferred into another 96-deep-well plate and proteins are precipitated (5 min on ice) by adding 100 μL of ice cold precipitation solution (1 μM labelled pantothenic acid (di-β-alanine-13C6,15N2 calcium salt, Sigma, #705837) in acetonitrile).
Afterwards the plate is centrifuged (4° C., 3220 G, 10 min) and supernatants (50 μL) are collected into another 96-deep-well plate and mixed (10 sec, 1400 rpm) with 150 μL ice cold formic acid (0.1%, Carl Roth GmbH+Co.KG, #CP03.1). The formation of pantothenic acid is detected by RapidFire Mass Spectrometry. A TripleQuad 6500+(ABSciex, Germany) is equipped with an LC-1290 system, a RapidFire autosampler (Agilent, Germany) and a C18 cartridge Type C 12 μL (Agilent Cat #G9526-80000). Mobile phase A is consisting of 0.09% formic acid and 0.01% trifluoroacetic acid in water and mobile phase B of 0.09% formic acid and 0.01% trifluoroacetic acid in acetonitrile/methanol/water=47.5/47.5/5.

Row | IC50 [1] | IC50 [2] | Compound
1 | 0.83 nM | 10.4 nM | CC1(C#N)CCN(C(=O)c2ccc(NCc3ncn4ccccc34)nc2)C1 (stereo not drawn) [Example 1.17]
2 | 0.18 nM | 10.3 nM | CC(=O)N(C)[C@H]1CCN(C(=O)c2ccc(N[C@@H](C)c3cnc4[nH]ccc4c3)nc2)C1 [Example 5.9]
3 | 0.29 nM | 26.2 nM | CN(C(=O)C1CC1)[C@H]1CCN(C(=O)c2ccc(NCc3csc4ccccc34)nc2)C1 [Example 5.39]
4 | 0.23 nM | 3.91 nM | CC(=O)N(C)[C@H]1CCN(C(=O)c2ccc(NCc3cnc4ccccn34)nc2)C1 [Example 5.12]
5 | 0.28 nM | 1.71 nM | CC(=O)N(C)[C@H]1CCN(C(=O)c2ccc(NCc3ccnc4[nH]ccc34)nc2)C1 [Example 5.13]
6 | 0.62 nM | 4.39 nM | CC(=O)N(C)[C@H]1CCN(C(=O)c2ccc(NCc3c[nH]c4ccccc34)nc2)C1 [Example 5.16]
7 | 0.1 nM | 1.48 nM | CN(C(=O)C1CC(F)(F)C1)[C@H]1CCN(C(=O)c2ccc(NCc3cnc4ccccn34)nc2)C1 [Example 1.12]
8 | 0.75 nM | 3.69 nM | CC(=O)N(C)[C@H]1CCN(C(=O)c2ccc(NCc3ncn4ccccc34)nc2)C1 [Example 5.19]
9 | 0.36 nM | 1.69 nM | CC(=O)N(C)[C@H]1CCN(C(=O)c2ccc(NCc3n[nH]c4ccccc34)nc2)C1 [Example 5.14]
10 | 0.54 nM | 1.06 nM | CC(=O)N(C)[C@H]1CCN(C(=O)c2ccc(NCc3c(C)ccc4nc(C)[nH]c34)nc2)C1 [Example 5.40]
11 | 0.24 nM | 3.49 nM | O=C(c1ccc(NCc2cnc3ccccn23)nc1)N1CC[C@H](N2CCOC2=O)C1 [Example 1.1, 3-[(3S)-1-{6-[({Imidazo[1,2-a]pyridin-3-yl}methyl)amino]pyridine-3-carbonyl}pyrrolidin-3-yl]-1,3-oxazolidin-2-one]
12 | 0.1 nM | 2.07 nM | C[C@H](Nc1ccc(C(=O)N2CC[C@H](N(C)C(=O)C3CCC3)C2)cn1)c1cnc2[nH]ccc2c1 [Example 1.4]
13 | 0.16 nM | 2.78 nM | C[C@H](Nc1ccc(C(=O)N2CC[C@H](N(C)C(=O)C3CC(F)(F)C3)C2)cn1)c1cnc2[nH]ccc2c1 [Example 1.10]
14 | 0.13 nM | 1.7 nM | C[C@H](Nc1ccc(C(=O)N2CC[C@H](N(C)C(=O)C3(C#N)CC3)C2)cn1)c1cnc2[nH]ccc2c1 [Example 1.7]
15 | 0.09 nM | 11.2 nM | CC(=O)N(C)[C@H]1CCN(C(=O)c2ccc(NCc3cccc4[nH]ncc34)nc2)C1 [Example 5.3]
16 | 0.29 nM | 1.39 nM | CC(=O)N(C)[C@H]1CCN(C(=O)c2ccc(NCc3cnc4ccsc4c3)nc2)C1 [Example 2.4]
17 | 0.04 nM | 1.17 nM | CC(=O)N(C)[C@H]1CCN(C(=O)c2ccc(NCc3cncc4ccsc34)nc2)C1 [Example 5.1, N-Methyl-N-[(3S)-1-{6-[({thieno[3,2-c]pyridin-7-yl}methyl)amino]pyridine-3-carbonyl}pyrrolidin-3-yl]acetamide]
18 | 0.33 nM | 7.66 nM | CC(=O)N(C)[C@H]1CCN(C(=O)c2ccc(N[C@@H](C)c3cccc4[nH]ncc34)nc2)C1 [Example 7.1, N-[(3S)-1-(6-{[(1S)-1-(1H-Indazol-4-yl)ethyl]amino}pyridine-3-carbonyl)pyrrolidin-3-yl]-N-methylacetamide]
19 | 0.82 nM | 3.35 nM | CC(=O)N(C)[C@H]1CCN(C(=O)c2ccc(NCc3ccc4[nH]ncc4c3)nc2)C1 [Example 5.22]
20 | 1.43 nM | 4.1 nM | CC(=O)N(C)[C@H]1CCN(C(=O)c2ccc(N[C@@H](C)c3nc4ccccc4[nH]3)nc2)C1 [Example 5.23]
21 | 0.36 nM | 1.37 nM | CC(=O)N(C)[C@H]1CCN(C(=O)c2ccc(N[C@@H](C)c3ccc4nn(C)cc4c3)nc2)C1 [Example 5.38]
22 | 0.1 nM | 3.05 nM | C[C@H](Nc1ccc(C(=O)N2CC[C@H](N(C)C(=O)C3(C#N)CC3)C2)cn1)c1cnc2[nH]ccc2c1 [Example 1.3]
23 | 0.15 nM | 3.03 nM | CN(C(=O)C1(C#N)CC1)[C@H]1CCN(C(=O)c2ccc(NCc3cnc4ccccn34)nc2)C1 [Example 1.13]
24 | 1.23 nM | 3.88 nM | CC(=O)N(C)[C@H]1CCN(C(=O)c2ccc(NCc3cccc4ncccc34)nc2)C1 [Example 5.24]
25 | 0.3 nM | 3.78 nM | CC1(C#N)CCN(C(=O)c2ccc(NCc3ccnc4[nH]ccc34)nc2)C1 (stereo not drawn) [Example 1.19]
26 | 0.22 nM | 4.86 nM | CC(=O)N(C)[C@H]1CCN(C(=O)c2ccc(N[C@@H](C)c3ccc4nc[nH]c4c3)nc2)C1 [Example 5.36]
27 | 0.1 nM | 1.63 nM | CN(C(=O)C1CCC1)[C@H]1CCN(C(=O)c2ccc(NCc3cnc4ccccn34)nc2)C1 [Example 4.1, N-[(3S)-1-{6-[({Imidazo[1,2-a]pyridin-3-yl}methyl)amino]pyridine-3-carbonyl}pyrrolidin-3-yl]-N-methylcyclobutanecarboxamide]
28 | 0.11 nM | 1.58 nM | C[C@H](Nc1ccc(C(=O)N2CC[C@H](N(C)C(=O)C3CCC3)C2)cn1)c1cnc2[nH]ccc2c1 [Example 1.5]
29 | 0.41 nM | 7.21 nM | CC(=O)N(C)[C@H]1CCN(C(=O)c2ccc(NCc3csc4ccccc34)nc2)C1 [Example 3.1, N-[(3S)-1-(6-{1[(1-Benzothiophen-3-yl)methyl]amino}pyridine-3-carbonyl)pyrrolidin-3-yl]-N-methylacetamide]
30 | 0.23 nM | 5.03 nM | CC(=O)N(C)[C@H]1CCN(C(=O)c2ccc(NCc3n[nH]c4ccc(Cl)cc34)nc2)C1 [Example 2.1, N-[1(3S)-1-(6-{1[(5-Chloro-1H-indazol-3-yl)methyl]amino}pyridine-3-carbonyl)pyrrolidin-3-yl]-N-methylacetamide]
